Columns and labels:
[1] = test system: human acute myeloid leukemia cell line MOLM-13; test: In vivo effect of combined use of Compound A and decitabine on subcutaneous MOLM-13 tumors in NOD-SCID mice (Test Example 2); conditions: for TGI (%): 17 days after tumor inoculation
Protocol: Human acute myeloid leukemia cell line MOLM-13 cells were suspended to 5×10^7 cells/mL using phosphate-buffered saline. 0.1 mL of the prepared cell suspension was subcutaneously transplanted to each NOD-SCID mouse (male, 6 weeks old). […] For a combined use group, 25 mg/kg or 50 mg/kg Compound A and 1 mg/kg or 50 mg/kg decitabine were administered sequentially. […] The major axis (mm) and minor axis (mm) of tumor were measured over time using an electronic digital caliper. […] In addition, the results of the last body weight measurement were used in dose calculation. […] A: Average tumor volume of the compound-administered group on the date of assessment (*) B: Average tumor volume of the untreated control group on the date of assessment (*) *: The tumor volume was calculated according to ½×[Major axis of tumor]×[Minor axis of tumor]×[Minor axis of tumor].

[2] = Body weight change of MOLM-13 tumor-bearing NOD-SCID mice, Compound A and azacitidine (Test Example 1); format: in vivo, mouse
Protocol: (§1) Human acute myeloid leukemia cell line MOLM-13 cells were suspended to 5×10^7 cells/mL using phosphate-buffered saline. 0.1 mL of the prepared cell suspension was subcutaneously transplanted to each NOD-SCID mouse (male, 6 weeks old). On 6 days after the tumor inoculation, after confirmation that the average tumor volume exceeded 100 mm^3, the mice were grouped on the basis of their tumor volume values. 25 mg/kg or 50 mg/kg Compound A was orally administered by forced administration to the mice. 2.5 mg/kg or 4 mg/kg azacitidine was intravenously administered to the tails of the mice. For a combined use group, 25 mg/kg or 50 mg/kg Compound A and 2.5 mg/kg or 4 mg/kg azacitidine were administered sequentially. The administration of Compound A was performed once a day for 5 consecutive days (6 to 10 days after the tumor inoculation) from the date of grouping (6 days after the tumor inoculation), and after a 2-day drug holiday, performed once a day for 4 consecutive days (13 to 16 days after the tumor inoculation). The administration of azacitidine was performed once a day for 5 consecutive days (6 to 10 days after the tumor inoculation) from the date of grouping (6 days after the tumor inoculation). The major axis (mm) and minor axis (mm) of tumor were measured over time using an electronic digital caliper. Tumor growth inhibition % (TGI %) on the date of assessment (17 days after the tumor inoculation) calculated according to calculation formula (4) shown below was used in evaluation. Also, the body weights were measured over time using an automatic balance for small animals, and body weight change % was calculated according to calculation formula (5) shown below to study the influence of drug administration on the body weights. In addition, the results of the last body weight measurement were used in dose calculation.
(§2) Body weight change (%)=Average body weight change % of the individuals (5)
(§3) Body weight change % of each individual=[…]
(§4) BWn: Body weight on day n
(§5) BWs: Body weight on the start day of administration

[3] = Body weight change of MOLM-13 tumor-bearing NOD-SCID mice, Compound A and decitabine (Test Example 2); format: in vivo, mouse
Protocol: as §1, with “the mice. 1 mg/kg or” for “the mice. 2.5 mg/kg or”, “mg/kg or 50 mg/kg decitabine” for “mg/kg or 4 mg/kg azacitidine”, “50 mg/kg decitabine was intravenously” for “4 mg/kg azacitidine was intravenously”, “A and 1 mg/kg or” for “A and 2.5 mg/kg or”, “50 mg/kg decitabine were administered” for “4 mg/kg azacitidine were administered”, “administration of decitabine to the 50 mg/kg group was performed at the date of grouping (6 days after the tumor inoculation), and the administration thereof to the 1 mg/kg group was performed” for “administration of azacitidine was performed”
as §2, §3, §4, §5

[4] = test system: human acute myeloid leukemia cell line MOLM-13; test: In vivo effect of combined use of Compound A and azacitidine on subcutaneous MOLM-13 tumors in NOD-SCID mice (Test Example 1); conditions: for TGI (%): 17 days after tumor inoculation
Protocol: Human acute myeloid leukemia cell line MOLM-13 cells were suspended to 5×10^7 cells/mL using phosphate-buffered saline. 0.1 mL of the prepared cell suspension was subcutaneously transplanted to each NOD-SCID mouse (male, 6 weeks old). […] The major axis (mm) and minor axis (mm) of tumor were measured over time using an electronic digital caliper. […] In addition, the results of the last body weight measurement were used in dose calculation. […] A: Average tumor volume of the compound-administered group on the date of assessment (*) B: Average tumor volume of the untreated control group on the date of assessment (*) *: The tumor volume was calculated according to ½×[Major axis of tumor]×[Minor axis of tumor]×[Minor axis of tumor].

[5] = Compound A 25 mg/kg oral, day 6 after tumor inoculation
[6] = Compound A 25 mg/kg oral, day 8 after tumor inoculation
[7] = Compound A 25 mg/kg oral, day 10 after tumor inoculation
[8] = Compound A 25 mg/kg oral, day 13 after tumor inoculation
[9] = Compound A 25 mg/kg oral, day 15 after tumor inoculation
[10] = Compound A 25 mg/kg oral, day 17 after tumor inoculation
[11] = Compound A 50 mg/kg oral, day 6 after tumor inoculation
[12] = Compound A 50 mg/kg oral, day 8 after tumor inoculation
[13] = Compound A 50 mg/kg oral, day 10 after tumor inoculation
[14] = Compound A 50 mg/kg oral, day 13 after tumor inoculation
[15] = Compound A 50 mg/kg oral, day 15 after tumor inoculation
[16] = Compound A 50 mg/kg oral, day 17 after tumor inoculation

## CC1(C)CCC2(CC1)N[C@@H](C(=O)N[C@@H]1CC[C@@H](C(N)=O)OC1)[C@H](c1ccnc(Cl)c1F)[C@]21C(=O)Nc2cc(Cl)ccc21.Cc1ccc(S(=O)(=O)O)cc1 [Compound A, (3′R,4′S,5′R)—N-[(3R,6S)-6-carbamoyltetrahydro-2H-pyran-3-yl]-6″-chloro-4′-(2-chloro-3-fluoropyridin-4-yl)-4,4-dimethyl-2″-oxo-1″,2″-dihydrodispiro[cyclohexane-1,2′-pyrrolidine-3′,3″-indole]-5′-carboxamide p-toluenesulfonate]
[1]; Compound A 25 mg/kg oral
  TGI (%): 22%
[1]; [5]
  Estimated tumor volume, average: 147 mm^3
[1]; [6]
  Estimated tumor volume, average: 257 mm^3
[1]; [7]
  Estimated tumor volume, average: 388 mm^3
[1]; [8]
  Estimated tumor volume, average: 876 mm^3
[1]; [9]
  Estimated tumor volume, average: 1213 mm^3
[1]; [10]
  Estimated tumor volume, average: 1825 mm^3
[1]; Compound A 50 mg/kg oral
  TGI (%): 76%
[1]; [11]
  Estimated tumor volume, average: 143 mm^3
[1]; [12]
  Estimated tumor volume, average: 227 mm^3
[1]; [13]
  Estimated tumor volume, average: 170 mm^3
[1]; [14]
  Estimated tumor volume, average: 310 mm^3
[1]; [15]
  Estimated tumor volume, average: 407 mm^3
[1]; [16]
  Estimated tumor volume, average: 554 mm^3
[2]; [5]
  Body weight change (%), average: 0.0%
[2]; [6]
  Body weight change (%), average: 2.5%
[2]; [7]
  Body weight change (%), average: 3.7%
[2]; [8]
  Body weight change (%), average: 9.0%
[2]; [9]
  Body weight change (%), average: 10.8%
[2]; [10]
  Body weight change (%), average: 13.8%
[2]; [11]
  Body weight change (%), average: 0.0%
[2]; [12]
  Body weight change (%), average: 1.7%
[2]; [13]
  Body weight change (%), average: 4.4%
[2]; [14]
  Body weight change (%), average: 8.7%
[2]; [15]
  Body weight change (%), average: 8.9%
[2]; [16]
  Body weight change (%), average: 10.7%
[3]; [5]
  Body weight change (%), average: 0.0%
[3]; [6]
  Body weight change (%), average: 2.3%
[3]; [7]
  Body weight change (%), average: 2.0%
[3]; [8]
  Body weight change (%), average: 8.0%
[3]; [9]
  Body weight change (%), average: 8.5%
[3]; [10]
  Body weight change (%), average: 10.3%
[3]; [11]
  Body weight change (%), average: 0.0%
[3]; [12]
  Body weight change (%), average: 1.7%
[3]; [13]
  Body weight change (%), average: 2.4%
[3]; [14]
  Body weight change (%), average: 7.4%
[3]; [15]
  Body weight change (%), average: 6.2%
[3]; [16]
  Body weight change (%), average: 7.2%
[4]; Compound A 25 mg/kg oral
  TGI (%): 34%
[4]; [5]
  Estimated tumor volume, average: 118 mm^3
[4]; [6]
  Estimated tumor volume, average: 269 mm^3
[4]; [7]
  Estimated tumor volume, average: 418 mm^3
[4]; [8]
  Estimated tumor volume, average: 834 mm^3
[4]; [9]
  Estimated tumor volume, average: 1346 mm^3
[4]; [10]
  Estimated tumor volume, average: 1697 mm^3
[4]; Compound A 50 mg/kg oral
  TGI (%): 72%
[4]; [11]
  Estimated tumor volume, average: 116 mm^3
[4]; [12]
  Estimated tumor volume, average: 180 mm^3
[4]; [13]
  Estimated tumor volume, average: 197 mm^3
[4]; [14]
  Estimated tumor volume, average: 364 mm^3
[4]; [15]
  Estimated tumor volume, average: 545 mm^3
[4]; [16]
  Estimated tumor volume, average: 721 mm^3
